Laboratory results: patent US20240083846A1, “SMAC MIMETICS FOR TREATMENT OF CANCER, PROCESS FOR PREPARATION AND PHARMACEUTICAL COMPOSITION THEREOF” (COUNCIL OF SCIENTIFIC & INDUSTRIAL RESEARCH, priority 2020, published 2024)
Where two headings read alike, the source gives them in different places. Where a SMILES comes first, the peptide text is derived from it. [ ]: non-standard residue; d: D form. The star is where a group is joined. Pro(5R-(5-methylfur-2-yl)) = Cc1ccc([C@H]2CC[C@@H](C(=O)O)N2)o1; NHCHPh2 = c1ccc(C(N*)c2ccccc2)cc1; Chg = N[C@H](C(=O)O)C1CCCCC1; NMeA = CN[C@@H](C)C(=O)O; OBn = c1ccc(CO*)cc1

What was measured:
XIAP BIR3 protein = XIAP BIR3 protein (Homo sapiens, UniProt P98170); experiment: Fluorescence polarization competition binding assay, XIAP BIR3
Sequence of XIAP BIR3 protein (P98170 241-356 limits assumed): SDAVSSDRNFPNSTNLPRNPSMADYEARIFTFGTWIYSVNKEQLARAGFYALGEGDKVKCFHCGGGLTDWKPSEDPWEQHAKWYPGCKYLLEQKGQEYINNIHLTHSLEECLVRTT
Procedure: (§1) The SMAC mimetics 1-9 were tested for their ability to displace the fluorescent labeled peptide AVPIAQK(FAM)-OH from XIAP BIR2 or XIAP BIR3 protein. The dose dependent binding experiment were then carried out by sequentially increasing the concentration of SMAC mimetic compounds at constant concentration of fluorescent labeled peptide and XIAP BIR2 or XIAP BIR3 protein. IC5- values were determined from the plot draw by prism software using nonlinear least-squares analysis. The Ki values of the SMAC mimetics were calculated which was based upon the measured IC50 values, the Kd value between tracer AVPIAQK(FAM)-OH and XIAP BIR2 or XIAP BIR3 complex, and the concentrations of the protein and tracer in the competition assay by using the web based program which are freely accessed at http://sw16.im.med.umich.edu/software/calc_ki/.In-silico.
(§2) Binding isotherms were plotted between FP reading versus log values of protein concentration in nM. The data was analysed using GraphPad prism and Kd values were determined using Boltzmann-sigmoidal non-linear regression curve fitting.

[1] = SRB cytotoxicity assay, VERO; assay type: cell-based, monkey; conditions: monkey
Procedure: (§3) In vitro cytotoxic activities of different compounds were assessed by using standard SRB assay in different cells. The absorbance of the treated and untreated cells was measured on a multi-well scanning spectrophotometer (Epoch Microplate Reader, Biotek, USA) at a wavelength of 510 nm. Percent growth inhibition was calculated by using the formula […].

SW 620 cells = experiment: SRB cytotoxicity assay, SW 620; assay type: cell-based; conditions: for inhibition at 10 µM: Homo sapiens, read-out: In vitro cytotoxicity at 10 μM dose, SW 620 (percent growth inhibition)
Procedure: as §3

XIAP BIR2 protein = XIAP BIR2 protein (Homo sapiens, UniProt P98170); experiment: Fluorescence polarization competition binding assay, XIAP BIR2
Sequence of XIAP BIR2 protein (P98170 124-240 limits assumed): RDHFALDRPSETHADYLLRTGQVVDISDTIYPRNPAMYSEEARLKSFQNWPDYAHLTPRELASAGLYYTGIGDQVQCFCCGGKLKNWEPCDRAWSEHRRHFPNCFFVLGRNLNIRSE
Procedure: as §1, §2

HT29 cells = experiment: SRB cytotoxicity assay, HT29; assay type: cell-based; conditions: for inhibition at 10 µM: Homo sapiens, read-out: In vitro cytotoxicity at 10 μM dose, HT29 (percent growth inhibition)
Procedure: as §3

HCT 116 cells = experiment: SRB cytotoxicity assay, HCT 116; assay type: cell-based; conditions: Homo sapiens, read-out: In vitro cytotoxicity at 10 μM dose, HCT 116 (percent growth inhibition)
Procedure: as §3

SW-620 xenograft = experiment: Cisplatin resistant SW-620 xenograft model; assay type: in vivo, nude Crl: CD1-Foxnlnu mice; conditions: FIG. 7
Description: All the animals were maintained in a pathogen-free facility under a day—night cycle.

[2] = displacement of AVPIAQK(FAM)-OH, fluorescence polarization, read-out: Target Binding BIR3 Ki
[3] = VERO cells, 10 μM, 48 hours, SRB assay, read-out: In vitro cytotoxicity at 10 μM dose, VERO (percent growth inhibition)
[4] = SW-620, 10 μM, 48 hours, SRB assay
[5] = displacement of AVPIAQK(FAM)-OH, fluorescence polarization, read-out: Target Binding BIR2 Ki
[6] = HT-29, 10 μM, 48 hours, SRB assay
[7] = HCT-116, 10 μM, 48 hours, SRB assay

| Ki (XIAP BIR3 protein; [2]) [nM] | Ki (XIAP BIR2 protein; [5]) [nM] | SMILES | inhibition at 48 h, 10 μM [1, 3] [%] | inhibition at 10 µM (SW 620 cells; [4]) [%] | inhibition at 10 µM (HT29 cells; [6]) [%] | inhibition at 10 µM (HCT 116 cells; [7]) [%] | also measured |
| --- | --- | --- | --- | --- | --- | --- | --- |
| 4380 | 7390 | CC[C@H](C)[C@H](NC(=O)[C@@H]1CC[C@H](c2ccc(C)o2)N1C(=O)[C@@H](NC(=O)[C@H](C)NC)C(C)C)C(=O)OCc1ccccc1 [Compound 4, (2S,3S)-benzyl 3-methyl-2-((2S,5R)-1-((S)-3-methyl-2-((S)-2-(methylamino)propanamido)butanoyl)-5-(5-methylfuran-2-yl)pyrrolidine-2-carboxamido)pentanoate] | 4.54 ± 5.6 | -4.1 | 12 ± 0.6 | -8.07 ± 6.6 | – |
| 500 | 3250 | CN[C@@H](C)C(=O)N[C@H](C(=O)N1[C@@H](c2ccc(C)o2)CC[C@H]1C(=O)NC(c1ccccc1)c1ccccc1)C(C)C [Compound 5, (2S,5R)-N-benzhydryl-1-(methyl-L-alanyl-L-valyl)-5-(5-methylfuran-2-yl)pyrrolidine-2-carboxamide] | 11.4 ± 1.1 | 8.11 ± 11.3 | 40.9 ± 5.3 | 5.96 ± 1.2 | – |
| 1420 | > 10000 | CC[C@H](C)[C@H](NC(=O)[C@@H]1CC[C@H](c2ccc(C)o2)N1C(=O)[C@@H](NC(=O)[C@H](C)NC)C1CCCCC1)C(=O)OCc1ccccc1 [Compound 7, (2S,3S)-benzyl 2-((2S,5R)-1-((S)-2-cyclohexyl-2-((S)-2-(methylamino)propanamido)acetyl)-5-(5-methylfuran-2-yl)pyrrolidine-2-carboxamido)-3-methylpentanoate] (H-[NMeA][Chg][Pro(5R-(5-methylfur-2-yl))]I-OBn) | – | – | – | – | inhibition at 48 h, 10 μM [1]: 63.2 ± 5%; inhibition at 10 µM (SW 620 cells; SW-620, 48 h): 52.9 ± 22.4%; inhibition at 10 µM (HT29 cells; HT-29, 48 h): 71.6 ± 10.2%; inhibition at 10 µM (HCT 116 cells; HCT-116, 48 h): 76.5 ± 2.3% |
| > 10000 | > 10000 | CC[C@H](C)[C@H](NC(=O)[C@@H]1CC[C@H](c2ccc(C)o2)N1C(=O)[C@@H](NC(=O)[C@H](C)N)C(C)C)C(=O)OCc1ccccc1 [Compound 2, benzyl ((2S,5R)-1-(L-alanyl-L-valyl)-5-(5-methylfuran-2-yl)pyrrolidine-2-carbonyl)-L-isoleucinate] | 24.2 ± 22.7 | 7.88 ± 8 | -1.83 ± 5.5 | -7.06 ± 6.9 | – |
| – | – | CC[C@H](C)[C@H](NC(=O)[C@@H]1CCCN1C(=O)[C@@H](NC(=O)[C@H](C)N)C(C)C)C(=O)O [Compound 1, L-alanyl-L-valyl-L-prolyl-L-isoleucine] | – | – | – | – | In vitro cytotoxicity at 10 μM dose, SW 620 (percent growth inhibition) (SW 620 cells; 10 μM, 48 hours, SRB assay): 0.97 ± 2.3%; In vitro cytotoxicity at 10 μM dose, HT29 (percent growth inhibition) (HT29 cells; 10 μM, 48 hours, SRB assay): −0.01 ± 3.6% |
| 230 | 1080 | Cc1ccc([C@H]2CC[C@@H](C(=O)NC(c3ccccc3)c3ccccc3)N2C(=O)[C@@H](NC(=O)[C@H](C)N)C(C)C)o1 [Compound 3, (2S,5R)-1-(L-alanyl-L-valyl)-N-benzhydryl-5-(5-methylfuran-2-yl)pyrrolidine-2-carboxamide] | 3.89 ± 3.4 | 1.44 ± 2.1 | -0.46 ± 2.2 | -2.6 ± 6.1 | – |
| – | – | N.N.[Cl][Pt][Cl] [cisplatin, reference compound] | – | – | – | – | In vivo anti tumor efficacy (SW-620 xenograft): failed to deliver its effect |
| – | – | CC[C@H](C)[C@H](NC(=O)[C@@H]1CC[C@H](c2ccc(C)o2)N1C(=O)[C@@H](NC(=O)[C@H](C)NC)C1CCCCC1)C(=O)NC(c1ccccc1)c1ccccc1 [Compound 9, (2S,5R)-N-((2S ,3S)-1-(benzhydrylamino)-3-methyl-l-oxopentan-2-yl)-1-((S)-2-cyclohexyl-2-((S)-2-(methylamino)propanamido)acetyl)-5-(5-methylfuran-2-yl)pyrrolidine-2-carboxamide] (H-[NMeA][Chg][Pro(5R-(5-methylfur-2-yl))]I-NHCHPh2) | – | – | – | – | Ki (XIAP BIR3 protein): 790 nM; inhibition at 48 h, 10 μM ([1]; 10 μM, 48 hours, SRB assay, read-out: In vitro cytotoxicity at 10 μM dose, VERO (percent growth inhibition)): 59.4 ± 11.7%; inhibition at 10 µM (SW 620 cells; SW-620, 48 h): 81.8 ± 3.3%; Ki (XIAP BIR2 protein): > 10000 nM; inhibition at 10 µM (HT29 cells; HT-29, 48 h): 72.7 ± 6.9%; inhibition at 10 µM (HCT 116 cells; HCT-116, 48 h): 66.2 ± 15% |
| 730 | 1800 | CN[C@@H](C)C(=O)N[C@H](C(=O)N1[C@@H](c2ccc(C)o2)CC[C@H]1C(=O)NC(c1ccccc1)c1ccccc1)C1CCCCC1 [Compound 8, (2S ,5R)-N-benzhydryl-1-((S)-2-cyclohexyl-2-((S)-2-(methylamino)propanamido)acetyl)-5-(5-methylfuran-2-yl)pyrrolidine-2-carboxamide] | 39.4 ± 6.9 | 38.7 ± 12.6 | 66 ± 2.4 | 48.5 ± 6.7 | – |
